What all share (format): functional
Assay [1] deals with Human gammaherpesvirus 4. Description: Tested for % viability of Rajii cells, in an in vitro assay for TPA-induced EBV activation at concentration of 1000 (mol ratio / 32 pmol TPA).
The test system of assay [2] is Human gammaherpesvirus 4. The assay can be described thus: In vitro assay for EBV activation in Raji cells induced by 12-O-tetradecanoylphorbol-13-acetate (TPA) at the concentration of 10 (mol ratio / 32 pmol TPA).
The test system of assay [3] is Human gammaherpesvirus 4. Description: In vitro assay for EBV activation in Raji cells induced by 12-O-tetradecanoylphorbol-13-acetate (TPA) at the concentration of 100 (mol ratio / 32 pmol TPA).
Assay [4] deals with Human gammaherpesvirus 4. Description: In vitro assay for EBV activation in Raji cells induced by 12-O-tetradecanoylphorbol-13-acetate (TPA) at the concentration of 1000 (mol ratio / 32 pmol TPA).
The subject of assay [5] is Human gammaherpesvirus 4. The assay can be described thus: Tested for % viability of Rajii cells, in an in vitro assay for TPA-induced EBV activation at concentration of 10 (mol ratio / 32 pmol TPA).
For assay [6], the system named is Human gammaherpesvirus 4. Description: Tested for % viability of Rajii cells, in an in vitro assay for TPA-induced EBV activation at concentration of 100 (mol ratio / 32 pmol TPA).
The test system of assay [7] is Human gammaherpesvirus 4. The assay can be described thus: In vitro assay for EBV activation in Raji cells induced by 12-O-tetradecanoylphorbol-13-acetate (TPA) at the concentration of 500 (mol ratio / 32 pmol TPA); (%Viability=>80).
The subject of assay [8] is Human gammaherpesvirus 4. Description: Tested for % viability of Rajii cells, in an in vitro assay for TPA-induced EBV activation at concentration of 500 (mol ratio / 32 pmol TPA).

`O=C(CCc1ccccc1)O[C@@H]1Cc2c(O)cc(O)cc2O[C@@H]1c1cc(O)c(O)c(O)c1`: the Viability with Human gammaherpesvirus 4 [1] is reported as 60%; in the assay on Human gammaherpesvirus 4 [5], over 80%; with Human gammaherpesvirus 4 [6], over 80%; in the assay with Human gammaherpesvirus 4 [8] it was over 80%. Further, the Activation in the assay with Human gammaherpesvirus 4 [2] was over 96.5%; in the assay on Human gammaherpesvirus 4 [3] it was over 68.4%; in the assay with Human gammaherpesvirus 4 [4], 17.8%; in the assay on Human gammaherpesvirus 4 [7], over 39%.
For `Cc1ccc(CC(=O)O[C@@H]2Cc3c(O)cc(O)cc3O[C@@H]2c2cc(O)c(O)c(O)c2)cc1`, the Viability in the assay with Human gammaherpesvirus 4 [1] is reported as 60%; in the assay with Human gammaherpesvirus 4 [5] it was over 80%; in the assay with Human gammaherpesvirus 4 [6], over 80%; with Human gammaherpesvirus 4 [8], over 80%. The Activation was over 95.4% with Human gammaherpesvirus 4 [2], over 65.9% in the assay with Human gammaherpesvirus 4 [3], 14% in the assay with Human gammaherpesvirus 4 [4] and over 35.3% in the assay with Human gammaherpesvirus 4 [7].
Consider `CCCCCCCCCCCCCC(=O)O[C@@H]1Cc2c(O)cc(O)cc2O[C@@H]1c1cc(O)c(O)c(O)c1`, for which the Viability in the assay with Human gammaherpesvirus 4 [1] is 60%; in the assay on Human gammaherpesvirus 4 [5], over 80%; with Human gammaherpesvirus 4 [6] it was over 80%; in the assay with Human gammaherpesvirus 4 [8], over 80%. Besides, the Activation in the assay with Human gammaherpesvirus 4 [2] is listed as over 100%; in the assay on Human gammaherpesvirus 4 [3], over 68.4%; in the assay on Human gammaherpesvirus 4 [4], 18.3%; with Human gammaherpesvirus 4 [7], over 35.2%.
As to `CCCCCCCCCCCCCCCC(=O)O[C@@H]1Cc2c(O)cc(O)cc2O[C@@H]1c1cc(O)c(O)c(O)c1`, the Viability with Human gammaherpesvirus 4 [1] is on record as 60%; in the assay on Human gammaherpesvirus 4 [5] it was over 80%; in the assay with Human gammaherpesvirus 4 [6], over 80%; in the assay with Human gammaherpesvirus 4 [8], over 80%. For the same molecule, the Activation was over 100% with Human gammaherpesvirus 4 [2], over 74.3% in the assay on Human gammaherpesvirus 4 [3], 22.7% in the assay on Human gammaherpesvirus 4 [4] and over 41.6% with Human gammaherpesvirus 4 [7].
As for `CCCCCCCCC(C)C(=O)O[C@@H]1Cc2c(O)cc(O)cc2O[C@@H]1c1cc(O)c(O)c(O)c1` (stereo partly specified), the Viability was 60% with Human gammaherpesvirus 4 [1], over 80% in the assay with Human gammaherpesvirus 4 [5], over 80% with Human gammaherpesvirus 4 [6] and over 80% in the assay with Human gammaherpesvirus 4 [8]. Further, the Activation was over 88.9% in the assay on Human gammaherpesvirus 4 [2], over 58.3% with Human gammaherpesvirus 4 [3], 7.9% with Human gammaherpesvirus 4 [4] and over 20.1% in the assay on Human gammaherpesvirus 4 [7].
As for `Oc1cc(O)c2c(c1)O[C@H](c1cc(O)c(O)c(O)c1)[C@H](O)C2` [EPIGALLOCATECHIN], the Viability in the assay with Human gammaherpesvirus 4 [1] was 60%; in the assay on Human gammaherpesvirus 4 [5], over 80%; in the assay on Human gammaherpesvirus 4 [6], over 80%; with Human gammaherpesvirus 4 [8] it was over 80%. Besides, the Activation is listed as over 100% with Human gammaherpesvirus 4 [2], over 73% in the assay on Human gammaherpesvirus 4 [3], 19.3% in the assay with Human gammaherpesvirus 4 [4] and over 44.9% in the assay on Human gammaherpesvirus 4 [7].
Take `CCCCCCCCCCCC(=O)O[C@@H]1Cc2c(O)cc(O)cc2O[C@@H]1c1cc(O)c(O)c(O)c1`: the Viability is listed as 60% in the assay on Human gammaherpesvirus 4 [1], over 80% in the assay with Human gammaherpesvirus 4 [5], over 80% in the assay on Human gammaherpesvirus 4 [6] and over 80% with Human gammaherpesvirus 4 [8]. In addition, the Activation in the assay on Human gammaherpesvirus 4 [2] is on record as over 94.2%; with Human gammaherpesvirus 4 [3], over 65.8%; in the assay with Human gammaherpesvirus 4 [4] it was 12.7%; in the assay with Human gammaherpesvirus 4 [7], over 31.9%.
With `CCCCCCCCCC(=O)O[C@@H]1Cc2c(O)cc(O)cc2O[C@@H]1c1cc(O)c(O)c(O)c1`, the Viability in the assay with Human gammaherpesvirus 4 [1] was 60%; in the assay on Human gammaherpesvirus 4 [5] it was over 80%; in the assay on Human gammaherpesvirus 4 [6], over 80%; with Human gammaherpesvirus 4 [8], over 80%. Besides, the Activation is recorded as over 91.9% in the assay with Human gammaherpesvirus 4 [2], over 61.4% in the assay with Human gammaherpesvirus 4 [3], 9.3% in the assay with Human gammaherpesvirus 4 [4] and over 22.7% in the assay on Human gammaherpesvirus 4 [7].
Consider `CCc1ccc(C(=O)O[C@@H]2Cc3c(O)cc(O)cc3O[C@@H]2c2cc(O)c(O)c(O)c2)cc1`, for which the Viability with Human gammaherpesvirus 4 [1] was 60%; with Human gammaherpesvirus 4 [5] it was over 80%; in the assay on Human gammaherpesvirus 4 [6], over 80%; in the assay on Human gammaherpesvirus 4 [8], over 80%. The Activation in the assay with Human gammaherpesvirus 4 [2] is over 93.4%; in the assay with Human gammaherpesvirus 4 [3] it was over 64.3%; with Human gammaherpesvirus 4 [4], 13.2%; in the assay on Human gammaherpesvirus 4 [7], over 35.4%.
With `O=C(O[C@@H]1Cc2c(O)cc(O)cc2O[C@@H]1c1cc(O)c(O)c(O)c1)c1cc(O)c(O)c(O)c1` [EPIGALOCATECHIN GALLATE], the Viability is listed as 60% in the assay on Human gammaherpesvirus 4 [1], over 80% in the assay with Human gammaherpesvirus 4 [5], over 80% in the assay with Human gammaherpesvirus 4 [6] and over 80% with Human gammaherpesvirus 4 [8]. Besides, the Activation is reported as over 95.9% in the assay with Human gammaherpesvirus 4 [2], over 69% with Human gammaherpesvirus 4 [3], 15.5% in the assay with Human gammaherpesvirus 4 [4] and over 35% with Human gammaherpesvirus 4 [7].
In the case of `CCCCCC(=O)O[C@@H]1Cc2c(O)cc(O)cc2O[C@@H]1c1cc(O)c(O)c(O)c1`, the Viability is listed as 60% with Human gammaherpesvirus 4 [1], over 80% in the assay with Human gammaherpesvirus 4 [5], over 80% in the assay on Human gammaherpesvirus 4 [6] and over 80% in the assay on Human gammaherpesvirus 4 [8]. Moreover, the Activation in the assay on Human gammaherpesvirus 4 [2] was over 93.5%; with Human gammaherpesvirus 4 [3], over 62.4%; with Human gammaherpesvirus 4 [4], 12%; in the assay on Human gammaherpesvirus 4 [7] it was over 30.8%.
As for `O=C(Cc1ccccc1)O[C@@H]1Cc2c(O)cc(O)cc2O[C@@H]1c1cc(O)c(O)c(O)c1`, the Viability in the assay with Human gammaherpesvirus 4 [1] is 60%; in the assay with Human gammaherpesvirus 4 [5], over 80%; in the assay on Human gammaherpesvirus 4 [6] it was over 80%; with Human gammaherpesvirus 4 [8], over 80%. For the same molecule, the Activation in the assay on Human gammaherpesvirus 4 [2] is on record as over 96.3%; in the assay with Human gammaherpesvirus 4 [3] it was over 67.8%; with Human gammaherpesvirus 4 [4] it was 15.4%; in the assay with Human gammaherpesvirus 4 [7] it was over 37.9%.
With `Cc1ccc(C(=O)O[C@@H]2Cc3c(O)cc(O)cc3O[C@@H]2c2cc(O)c(O)c(O)c2)cc1`, the Viability is 60% in the assay with Human gammaherpesvirus 4 [1], over 80% with Human gammaherpesvirus 4 [5], over 80% in the assay on Human gammaherpesvirus 4 [6] and over 80% in the assay on Human gammaherpesvirus 4 [8]. For the same molecule, the Activation in the assay with Human gammaherpesvirus 4 [2] is over 91.7%; in the assay with Human gammaherpesvirus 4 [3], over 62.8%; in the assay on Human gammaherpesvirus 4 [4], 10.4%; with Human gammaherpesvirus 4 [7], over 33%.
`CCCCCCCCCCCCCCCCCC(=O)O[C@@H]1Cc2c(O)cc(O)cc2O[C@@H]1c1cc(O)c(O)c(O)c1`: the Viability with Human gammaherpesvirus 4 [1] is 60%; with Human gammaherpesvirus 4 [5], over 80%; in the assay on Human gammaherpesvirus 4 [6], over 80%; with Human gammaherpesvirus 4 [8], over 80%. Also, the Activation in the assay with Human gammaherpesvirus 4 [2] is over 100%; in the assay with Human gammaherpesvirus 4 [3], over 86.9%; in the assay on Human gammaherpesvirus 4 [4], 31.5%; with Human gammaherpesvirus 4 [7], over 64%.
Turning to `CCCC(=O)O[C@@H]1Cc2c(O)cc(O)cc2O[C@@H]1c1cc(O)c(O)c(O)c1`, the Viability in the assay on Human gammaherpesvirus 4 [1] was 60%; with Human gammaherpesvirus 4 [5], over 80%; in the assay on Human gammaherpesvirus 4 [6] it was over 80%; with Human gammaherpesvirus 4 [8], over 80%. The Activation in the assay on Human gammaherpesvirus 4 [2] was over 94.5%; in the assay on Human gammaherpesvirus 4 [3] it was over 65.1%; in the assay on Human gammaherpesvirus 4 [4], 13.3%; in the assay with Human gammaherpesvirus 4 [7] it was over 33.8%.
On to `CCCCCCCC(=O)O[C@@H]1Cc2c(O)cc(O)cc2O[C@@H]1c1cc(O)c(O)c(O)c1`, for which the Viability in the assay on Human gammaherpesvirus 4 [1] is listed as 60%; with Human gammaherpesvirus 4 [5] it was over 80%; in the assay with Human gammaherpesvirus 4 [6], over 80%; with Human gammaherpesvirus 4 [8], over 80%. Also, the Activation in the assay with Human gammaherpesvirus 4 [2] is given as over 89.2%; in the assay with Human gammaherpesvirus 4 [3], over 56%; with Human gammaherpesvirus 4 [4], 6.5%; with Human gammaherpesvirus 4 [7], over 19.3%.
Regarding `CCCCCCC(C)C(=O)O[C@@H]1Cc2c(O)cc(O)cc2O[C@@H]1c1cc(O)c(O)c(O)c1` (stereo partly specified), the Viability in the assay with Human gammaherpesvirus 4 [1] is 60%; in the assay on Human gammaherpesvirus 4 [5], over 80%; with Human gammaherpesvirus 4 [6], over 80%; in the assay with Human gammaherpesvirus 4 [8], over 80%. Besides, the Activation in the assay with Human gammaherpesvirus 4 [2] is over 87.5%; in the assay on Human gammaherpesvirus 4 [3], over 54.1%; in the assay on Human gammaherpesvirus 4 [4], 5%; in the assay on Human gammaherpesvirus 4 [7], over 15.3%.

For the origin of these results see ChEMBL document CHEMBL1133250, “Antitumor promoting activities of 3-O-acyl-(-)epigallocatechins” (2000).
